Data set [1] concerns E. coli BL21 (DE3) RIL ribosome extract. To be noted: values published for E. coli BL21 (DE3) RIL ribosome extract; read-out: Ki, cf-Api137; cited from earlier work.
Data set [2] shares this test system. As to conditions: values published for E. coli BL21 (DE3) RIL ribosome extract; read-out: Ki, cf-Onc112; cited from earlier work. The text has this:
Table 2 Antibacterial activities, dissociation (Kd), and inhibition constants (Ki) of ribosome binding obtained for all PrAMPs included in the current study for E. coli strains BW25113 (BW) and Rosetta DE3 pLysS (Ros). | column: Ki [µmol/L] *** / cf-Onc112

Data set [3] deals with E. coli BW25113. The class given is cell-based, Escherichia coli. As to conditions: BW25113, 2 h. How it is done:
The minimal inhibitory concentrations (MIC) were determined at least twice in triplicate using a liquid broth microdilution assay in sterile 96-well plates and a total volume of 100 μL per well. Aqueous peptide solutions were serially 2-fold diluted in 25% MHBII or 33% TSB medium in a volume of 50 µL. An overnight culture was diluted in 25% MHBII or 33% TSB medium to 1.5 × 10^7 CFU/mL, and an aliquot of 50 μL was added to each well. The final cell count in each well was 7.5 × 10^6 CFU/mL. […] The turbidity of each well was measured at a wavelength of 600 nm. The MIC was defined as the lowest peptide concentration where the turbidity was identical to medium only.

Data set [4] has as its system E. coli Rosetta DE3 pLysS. The data set is described as follows: MIC, liquid broth microdilution. Format: cell-based, Escherichia coli. As to conditions: 25% MHBII medium, 7.5 × 10^6 CFU/mL, 37 °C, 20 ± 2 h, turbidity 600 nm, at least twice in triplicate. The method, then:
The minimal inhibitory concentrations (MIC) were determined at least twice in triplicate using a liquid broth microdilution assay in sterile 96-well plates and a total volume of 100 μL per well. Aqueous peptide solutions were serially 2-fold diluted in 25% MHBII or 33% TSB medium in a volume of 50 µL. An overnight culture was diluted in 25% MHBII or 33% TSB medium to 1.5 × 10^7 CFU/mL, and an aliquot of 50 μL was added to each well. The final cell count in each well was 7.5 × 10^6 CFU/mL. The plates were incubated at 37 °C for 20 ± 2 h. The turbidity of each well was measured at a wavelength of 600 nm. The MIC was defined as the lowest peptide concentration where the turbidity was identical to medium only.

Data set [5] has as its system E. coli BL21 (DE3) RIL ribosome extract. As to conditions: values published for E. coli BL21 (DE3) RIL ribosome extract; read-out: Kd (printed in column Ros); cited from earlier work. From the text:
Table 2 Antibacterial activities, dissociation (Kd), and inhibition constants (Ki) of ribosome binding obtained for all PrAMPs included in the current study for E. coli strains BW25113 (BW) and Rosetta DE3 pLysS (Ros). | column: Kd [µmol/L] ** / Ros

The target of data set [6] is BW25113 ribosome extract, ribosomal binding site of Onc112. Kind of data set: Fluorescence polarization competition against cf-Onc112 (Ki). Further details: species or system Escherichia coli. To be noted: unlabeled PrAMP against cf-labeled Onc112, calculated from IC50, 95% confidence interval in brackets. The method, then: (§1) E. coli BW25113 and E. coli Rosetta pLysS were cultivated in LB medium and harvested at an OD600 of ~4 by centrifugation (5000× g, 30 min, 4 °C). The cell pellets were washed by resuspension in ribosome preparation buffer (20 mmol/L Hepes-KOH, 6 mmol/L MgCl2, 30 mmol/L NH4Cl, pH 7.6, 4°C) and subsequent centrifugation (5000× g, 30 min, 4 °C). Cell pellets were suspended in ribosome preparation buffer ([…]) containing freshly added 2-mercapotethanol (4 mmol/L). Lysozyme was added to the resuspended cells and incubated on ice for 30 min. The cell suspension was disrupted six times using a FastPrep-24^TM 5G instrument (MP Biomedicals, Solon, OH, USA) with BigPrep 50 mL setting (40 s, 4.0 m/s), incubated with DNase I (5 mL/L) on ice for one hour and centrifuged (16,000× g, 30 min, 4 °C). The cell debris was removed from the supernatant by centrifugation (32,000× g, 60 min, 4 °C), and the supernatant was centrifuged again (165,000× g, 17 h, 4 °C). The pellet was resuspended in ribosome preparation buffer (0.1 mL per g cell pellet) to obtain the 70S ribosome extract and stored at −80 °C. The ribosome concentration was estimated by recording the absorbance at 260 nm (1 AU for a ribosome concentration of 28 nmol/L). The molecular weight of the 70S E. coli ribosome was assumed to be 2.3 MDa.
(§2) Ki was determined for ribosome extracts using cf-labeled and unlabeled peptides in ribosome preparation buffer. Black 384-well plates were prepared as described above. Unlabeled peptides or antibiotics (20 µL, 656 µmol/L) were added and 2-fold serially diluted in 23 wells in ribosome preparation buffer. A ribosome solution was prepared by adjusting the ribosome concentration to ~90% of the upper Kd plateau obtained for the cf-labeled peptide to be studied and added to each well (10 µL). […] The fluorescence polarization was measured on a PARADIGMTM microplate reader in the top read position (λexc = 485 nm, λem = 535 nm) in triplicate on at least two different days. […] Inhibition constants, Ki, were calculated as described by Mathias and Jung.

Data set [7] deals with 70S ribosome extract of E. coli BW25113. The data set is described as follows: Fluorescence polarization, Kd of cf-labeled peptides. Format: binding, Escherichia coli. To be noted: determined for the cf-labeled peptide; BW25113 ribosome extract; 28 °C, 90 min; 95% confidence interval in brackets; triplicate on at least two days; read-out: Kd, BW. The method, then: as §1
(§3) Kd was determined using a ribosome extract and cf-labeled peptides in ribosome preparation buffer. Briefly, black 384-well plates (flat bottom, Greiner Bio-One GmbH) were blocked with casein (0.5%, w/v) in phosphate buffer containing 0.05% (v/v) Tween 20 at 4 °C overnight and washed three times with phosphate buffer. A 2-fold dilution series of the ribosome extract (20 μL per well) in ribosome preparation buffer was prepared in a black 384-well plate (23 dilution steps). The cf-labeled peptide was dissolved in ribosome preparation buffer (20 μL, 40 nmol/L), added to each well, and incubated at 28 ± 1 °C. After 90 min, the fluorescence polarization was measured on a PARADIGMTM microplate reader (Beckman Coulter, Salzburg, Austria) in the top read position (λexc = 485 nm, λem = 535 nm) in triplicate on at least two different days. Data were fitted to a nonlinear, dose–response logistical transition equation [y= y0 + a/(1 + (x/x0)b)] using the Levenberg–Marquardt algorithm, with dissociation constants (Kd) represented by the x0 coefficients (GraphPad Prism for Windows v. 5.02, San Diego, CA, USA).
(In general: In fluorescence polarisation assays a small probe gives low polarisation when free and higher when bound to something large.)

The test system of data set [8] is 70S ribosome extract of E. coli Rosetta DE3 pLysS. Described as above. Format: binding, Escherichia coli. As to conditions: determined for the cf-labeled peptide, 28 °C, 90 min, 95% confidence interval in brackets, triplicate on at least two days, read-out: Kd, Ros. The method, then: as §1, §3
The target of data set [9] is BW25113 ribosome extract, ribosomal binding site of Api137. Kind of data set: Fluorescence polarization competition against cf-Api137 (Ki). Further details: species or system Escherichia coli. As to conditions: unlabeled PrAMP against cf-labeled Api137, calculated from IC50, 95% confidence interval in brackets. How it is done: as §1, §2
For data set [10], the target named is 70S ribosome extract of E. coli BW25113 (E. coli BW25113 (endogenous)). Kind of data set: fluorescence polarisation; competition: unlabeled peptide (2-fold series from 656 µmol/L) pre-incubated with BW25113 ribosome extract (28 °C, 90 min), then cf-Api137 (10 µL, 80 nmol/L) added (28 °C, 90 min); ribosome preparation buffer; Ki calculated from IC50.
The target is the same in data set [11].
For data set [12] the target is unchanged. The data set is described as follows: fluorescence polarisation; competition: unlabeled peptide (2-fold series from 656 µmol/L) pre-incubated with BW25113 ribosome extract (28 °C, 90 min), then cf-Onc112 (10 µL, 80 nmol/L) added (28 °C, 90 min); ribosome preparation buffer; Ki calculated from IC50.
A short description of data set [13]: lysates of E. coli Rosetta pLysS. To be noted: 37 °C, up to 24 h.
Data set [14] can be described thus: lysates of E. coli BW25113. As to conditions: E. coli BW25113, 37 °C, up to 24 h.
For data set [15], the target named is 70S ribosome extract of E. coli BW25113 (E. coli BW25113 (endogenous)). This is another data set of the same source.

Values after ≈ are worked out from the molar mass of the structure shown. Read-outs that look alike come from different tables or passages of the source. Square brackets hold non-standard residues; d marks the D form. Ends that are not written are not given here. Peptide text beside a SMILES is read from it.

With `CC[C@H](C)[C@H](NC(=O)[C@@H]1CCCN1C(=O)[C@H](CCCNC(=N)N)NC(=O)[C@@H]1CCCN1C(=O)[C@H](Cc1c[nH]cn1)NC(=O)[C@H](CO)NC(=O)[C@@H](NC(=O)[C@@H]1CCCN1C(=O)[C@H](CCCNC(=N)N)NC(=O)[C@@H]1CCCN1C(=O)[C@H](CO)NC(=O)[C@H](Cc1ccc(O)cc1)NC(=O)[C@@H]1CCCN1C(=O)[C@H](CCCNC(=N)N)NC(=O)[C@@H]1CCCN1C(=O)[C@H](CCCCN)NC(=O)CN)[C@@H](C)O)C(=O)N[C@@H](CCCNC(=N)N)C(=O)N[C@H](C(=O)O)C(C)C` [Drosocin] (H-GKPRPYSPRPTSHPRPIRV-OH; N-terminus assumed), the Ki is 9 nM in data set [1] and 1780 nM in data set [2]. Besides, the “MIC, BW” value in [3] came out at 128 µg/mL (≈ 58.2 µM). Moreover, the “MIC, Ros” value in data set [4] is recorded as 8 µg/mL (≈ 3.64 µM). In addition, the equilibrium dissociation constant (Kd) in data set [5] was 1080 nM.

`CC[C@H](C)[C@H](NC(=O)[C@@H](CCCNC(=N)N)NC(=O)[C@H](CCCNC(=N)N)NC(=O)[C@@H]1CCCN1C(=O)[C@@H]1CCCN1C(=O)[C@H](CCCNC(=N)N)NC(=O)[C@@H]1CCCN1C(=O)[C@H](CCCNC(=N)N)NC(=O)[C@@H]1CCCN1C(=O)[C@H](CC(C)C)NC(=O)[C@H](Cc1ccc(O)cc1)NC(=O)[C@@H]1CCCN1C(=O)[C@@H]1CCCN1C(=O)[C@H](CCCCN)NC(=O)[C@H](CC(=O)O)NC(=O)[C@@H](N)C(C)C)C(=O)N[C@@H](Cc1ccc(O)cc1)C(=O)N[C@@H](CC(N)=O)C(=O)N[C@H](CCCNC(=N)N)C(N)=O` [Onc112] (H-VDKPPYLPRPRPPR[dR]IYN[dR]-NH2): the figures for the Ki in data set [6] and in [9] were 8 nM and 606 nM, respectively. Moreover, the “MIC, BW” value in [3] is 4 µg/mL (≈ 1.67 µM). The dissociation constant (Kd) in [7] was found to be 27 nM; in data set [8] it was 51 nM. The “MIC, Ros” value in [4] came to 4 µg/mL (≈ 1.67 µM).

As for Api137 (peptide), the Ki in [10] was 2 nM; in data set [12], 219 nM. Besides, in data set [11], the inhibition of in vitro translation of GFP (PureExpress Delta RF123 kit with the kit's own ribosomes, RF1 added), GFP fluorescence relative to no PrAMP; peptide 0.05, 5 and 50 µmol/L is 77%.

On to GNNRPIYIPRPRPPHPRPIRV-OH, for which the fragment found result in data set [13] is “Api805 1-16 (GNNRPIYIPRPRPPHP-OH), major”; in data set [14], “Api805 1-16 (GNNRPIYIPRPRPPHP-OH), major”.

In the case of gu-ONNRPVYIPRPRPPHPRL-OH, the fragment found entry in data set [13] is on record as “Api137 1-17 (Gu-ONNRPVYIPRPRPPHPR-OH), major”; in data set [14], “Api137 1-17 (Gu-ONNRPVYIPRPRPPHPR-OH), major”.

With GNNRPIYIPRPRPPHPRPIRV-OH [Api805], in data set [10], the Ki is 1070 nM. Also, in [15], the inhibition of in vitro translation of GFP (PureExpress Delta RF123 kit with the kit's own ribosomes, RF1 added), GFP fluorescence relative to no PrAMP; peptide 0.05, 5 and 50 µmol/L stood at 52%; the inhibition of in vitro translation of GFP (PureExpress Delta RF123 kit with the kit's own ribosomes, no release factor), GFP fluorescence relative to no PrAMP; peptide 0.05, 5 and 50 µmol/L was found to be 38%. For the same molecule, the Ki in data set [12] was 489 nM.

As a reminder, the Ki is a measure of affinity in units of concentration, obtained from inhibition or displacement. One may read the Kd as the free concentration of one partner at which half of the binding sites on the other are occupied at equilibrium, for simple one-to-one binding.

The record behind these values is article PMC9025336 (Antibiotics, 2022).
